How the values were obtained:
[1] = test system: CCD2; assay: In vitro assay with semi-purified extracts of E. coli expressing CCD2, specificity for carotenoids; assay type: biochemical, Crocus sativus
Excerpt: (§1) RNA isolated from stigmas of saffron was sequenced by means of RNA-Seq 454 Titanium technology as reported in the literature (10) (FIG. 2A). The evolutionary relationships between the gene families CCD1 and CCD4 of saffron, Arabidopsis, rice and Synechocystis, were studied using the Neighbor-Joining method (11) (FIG. 2B), whilst the CCD proteins were modelled using the web server RaptorX (12) (FIG. 2C). The assays in bacteria were obtained by transforming particular strains of E. coli engineered to accumulate lycopene, β-carotene, and zeaxanthin, with the expression vectors pThio-DAN1-CCD2, pThio-DAN1-ZCD and pThio-DAN1 (empty vector, used as control) as indicated in the literature (13) (14) (15) (FIG. 3). The transformation of corn endosperm, in Agrobacterium tumefaciens-mediated manner, was obtained by cloning the coding sequence of CCD2 in the vector pBI121 (16) and by using protocols already present in the literature (17). The strain of E. coli BL21 (p-Gro7) was used to assay the activity in vitro of CCD2: the raw protein extracts were prepared and incubated with the appropriate substrates and extracts as described before (14) (FIG. 4). All the analyses directed to the identification and quantification of the carotenoids and apocarotenoids were performed using a mass spectrometry platform LTQ-Orbitrap coupled with a high-pressure liquid chromatography (HPLC) system and with a diode array detector (DAD) (ThermoFisher Scientific); the chromatographic separation was obtained using a C30 column with inverse phase, whereas for positive ionisation an APCI (Atmospheric Pressure Chemical Ionization) source was selected (18).
Since the strains of genetically modified E. coli can produce only a limited number of different carotenoids, we developed and used an in vitro assay, based on semi-purified extracts of E. coli that expresses CCD2, in order to study the specificity of this enzyme for the various carotenoids. […] 3-OH-β-apo-8′-carotenal, formed from CCD2 on the basis of the zeaxanthin in vitro, is then cleaved from the CCD2, with production of crocetin, signalling that the extracts of E. coli are able to convert the product of CCD2, crocetin dialdehyde, into crocetin.

[2] = target: T1, ZCD (Crocus sativus, UniProt Q84K96); assay: Corn endosperm transformed with 35S:ZCD, carotenoids and apocarotenoids by LC-HRMS; assay type: cell-based; conditions: for Relative content of carotenoids and apocarotenoids in corn endosperm: 35S: ZCD, peak areas of the ions standardised by the internal standard, mean ± SD of 4 biological repetitions
T1 construct: expressed in transfected cells; host or cells: corn (maize) endosperm, Agrobacterium tumefaciens-mediated transformation
T1 sequence (Q84K96 1-369): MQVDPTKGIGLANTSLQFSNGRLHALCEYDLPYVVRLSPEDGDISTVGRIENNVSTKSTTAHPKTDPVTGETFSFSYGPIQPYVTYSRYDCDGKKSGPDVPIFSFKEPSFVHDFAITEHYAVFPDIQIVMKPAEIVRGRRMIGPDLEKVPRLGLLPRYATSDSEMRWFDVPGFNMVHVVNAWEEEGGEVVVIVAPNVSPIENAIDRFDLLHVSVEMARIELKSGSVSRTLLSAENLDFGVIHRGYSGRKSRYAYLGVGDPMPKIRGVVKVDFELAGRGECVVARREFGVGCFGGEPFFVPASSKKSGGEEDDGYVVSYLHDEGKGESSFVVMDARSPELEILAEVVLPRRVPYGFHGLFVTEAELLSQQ
Excerpt: as §1
The sequences coding CCD2 and ZCD were cloned in the binary vector pBI121 under the control of the established promoter 35S. The vectors thus obtained were used to transform corn endosperm and cells of Arabidopsis thaliana, which contain zeaxanthin. […] Such a conversion is caused by the conversion of crocetin dialdehyde to crocetin in the corn endosperm (Table 1) and in the cells of Arabidopsis thaliana.

[3] = target: T1, ZCD; assay: In vitro assay with extracts of E. coli expressing ZCD, specificity for carotenoids; assay type: biochemical
[4] = target: T1, ZCD; assay: ZCD expressed in E. coli strains that accumulate lycopene, β-carotene or zeaxanthin; assay type: cell-based; conditions: E. coli strain accumulating the carotenoid, expression of ZCD
Excerpt: as §1
(§2) The coding sequences of the genes CCD2 and ZCD were cloned in the vector pThio-DAN1, which allows an inducible expression in E. coli induced from arabinose. The recombinant proteins were expressed in three strains of E. coli that accumulate lycopene, β-carotene and zeaxanthin (FIG. 3A) (13) (14). […] A peak with the chromatographic and the m/z ratio (329.1747) typical of crocetin was also discernible.

[5] = test system: CCD2; assay: CCD2 expressed in E. coli strains that accumulate lycopene, β-carotene or zeaxanthin; assay type: cell-based, Crocus sativus; conditions: E. coli strain accumulating the carotenoid, expression of CCD2
Excerpt: as §1, §2

Row | Compound | Cleavage of the substrate in vitro [1] | Relative content of carotenoids and apocarotenoids in corn endosperm [2] | Discoloration and cleavage product of the accumulated carotenoid [4] | Discoloration and cleavage product of the accumulated carotenoid [5] | also measured
1 | 3-OH-β-apo-8′-carotenal | cleaved |  |  |  | 
2 | CC1=C[C@H](O)CC(C)(C)[C@H]1/C=C/C(C)=C/C=C/C(C)=C/C=C/C=C(C)/C=C/C=C(C)/C=C/C1=C(C)C[C@@H](O)CC1(C)C [Lutein] |  | 0.64 ± 0.09 |  |  | 
3 | CC1=C(/C=C/C(C)=C/C=C/C(C)=C/C=C/C=C(C)/C=C/C=C(C)/C=C/C2=C(C)C[C@@H](O)CC2(C)C)C(C)(C)C[C@H](O)C1 [Zeaxanthin] | cleaves | 1.73 ± 0.20 | did not produce any discoloration or any cleavage product | clear discoloration | Cleavage of the substrate in vitro [3]: does not cleave; Cleavage product of zeaxanthin produced ([2]; corn endosperm expressing ZCD): No cleavage product
4 | CC(C)=CCC/C(C)=C/C=C/C(C)=C/C=C/C(C)=C/C=C/C=C(C)/C=C/C=C(C)/C=C/C=C(\C)CCC=C(C)C [lycopene] |  |  | no discoloration and no cleavage product | no discoloration and no cleavage product | 
5 | CC(/C=C/C=C(C)/C=C/[C@@]12O[C@]1(C)C[C@@H](O)CC2(C)C)=C\C=C\C=C(C)\C=C\C=C(C)\C=C\[C@@]12O[C@]1(C)C[C@@H](O)CC2(C)C [violaxanthin] | does not cleave |  |  |  | 
6 | CC1=C(/C=C/C(C)=C/C=C/C(C)=C/C=C/C=C(C)/C=C/C=C(\C)C=O)C(C)(C)CCC1 [β-apo-8′-carotenal] | does not cleave |  |  |  | 
7 | CC1=C(/C=C/C(C)=C/C=C/C(C)=C/C=C/C=C(C)/C=C/C=C(C)/C=C/C2=C(C)CCCC2(C)C)C(C)(C)CCC1 [β-carotene] | does not cleave |  | no discoloration and no cleavage product | no discoloration and no cleavage product | 
8 | CC1=C(/C=C/C(C)=C/C=C/C(C)=C/C=C/C=C(C)/C=C/C=C(C)/C=C/C2=C(C)C[C@@H](O)CC2(C)C)C(C)(C)CCC1 [β-cryptoxanthin] |  | 0.12 ± 0.04 |  |  | 

Source: patent US9969989B2, “Carotenoid dioxygenase and methods for the biotechnological production in microorganisms and plants of compounds derived from saffron” (AGENZIA NAZIONALE PER LE NUOVE TECNOLOGIE, L'ENERGIA E LO …, priority 2014, dated 2018)
